In patent US20160355503A1, “NITROGEN HEXACYCLE COMPOUNDS AS INHIBITORS OF p97 COMPLEX” (Cleave Biosciences, Inc., priority 2015, published 2016):

What was measured:
A549 cells = experiment: Cultured cancer cell viability assay (cell titer glo, CTG); type: cell-based; settings: Homo sapiens, 72 hr incubation
From the text: Anti-tumor effects are monitored in cultured cancer cells after several days of compound treatment. The cell titer glo assay (Promega) measures the amount of ATP present as a proxy for cellular viability. Cellular counting is done using high-content microscopy followed by image analysis. A hanging drop 3D-culture system (3D Biomatrix) is used followed by cell titer glo to measure growth in a tumor-like environment.
(§1) The cellular assay provides information about the anti-neoplastic activity of the compounds of the invention. The compounds are tested against cultured cancer cells to determine whether or not the compounds of the invention are capable of intersecting with cancer cells to minimize or eliminate such cells. The assay involves establishing colonies of such cells and then treating them with the test compound under specified conditions and analysis regima to determine results.
(§2) Cell Plating: • Seed cells ˜16 hrs prior to compound treatment • Plate 25 μL of A549 cells in every well of 384-well plate using multidrop. • Two (2) black plates for IF at 2500 cells/well • Let plate sit at room temp for 10-15 minutes prior to putting in incubator to allow cells to stick in middle of plate. • One (1) white plate for viability at 500 cells/well.
(§3) Treat Cells: • Serial dilute compounds with a 10 point 2-fold serial dilution in DMSO to make 250× stock compound solution • Dilute compounds 1:125 in cell culture media to make a 2× solution • Add 25 μl of dilution compounds to cell plates in well duplicates • Put cells back in incubator (6 hr incubation for black plates, 72 hr incubation for white plates).
Viability Assay: • Thaw an aliquot of frozen cell titer glo (Promega G7572) at room temperature. • Add 45 mL of NaCl/PBS solution to 5 ml of cell titer glo (10×). • Remove white plates from incubator, leave at room temp for 30 minutes. • Add 25 μl of diluted cell titer glo to each well. • Shake plate for >1 minute. • Incubate plate for >5 minutes to stabilize luminescence. • Luminescence is stable for up to 3 hours. • Read luminescence on plate reader

p97 = p97 (Homo sapiens, UniProt P55072); experiment: P97 ATPase biochemical assay (ADP Glo); settings: 20 nM p97, 20 μM ATP, 37° C. for 15 minutes
Sequence of p97 (P55072 whole entry): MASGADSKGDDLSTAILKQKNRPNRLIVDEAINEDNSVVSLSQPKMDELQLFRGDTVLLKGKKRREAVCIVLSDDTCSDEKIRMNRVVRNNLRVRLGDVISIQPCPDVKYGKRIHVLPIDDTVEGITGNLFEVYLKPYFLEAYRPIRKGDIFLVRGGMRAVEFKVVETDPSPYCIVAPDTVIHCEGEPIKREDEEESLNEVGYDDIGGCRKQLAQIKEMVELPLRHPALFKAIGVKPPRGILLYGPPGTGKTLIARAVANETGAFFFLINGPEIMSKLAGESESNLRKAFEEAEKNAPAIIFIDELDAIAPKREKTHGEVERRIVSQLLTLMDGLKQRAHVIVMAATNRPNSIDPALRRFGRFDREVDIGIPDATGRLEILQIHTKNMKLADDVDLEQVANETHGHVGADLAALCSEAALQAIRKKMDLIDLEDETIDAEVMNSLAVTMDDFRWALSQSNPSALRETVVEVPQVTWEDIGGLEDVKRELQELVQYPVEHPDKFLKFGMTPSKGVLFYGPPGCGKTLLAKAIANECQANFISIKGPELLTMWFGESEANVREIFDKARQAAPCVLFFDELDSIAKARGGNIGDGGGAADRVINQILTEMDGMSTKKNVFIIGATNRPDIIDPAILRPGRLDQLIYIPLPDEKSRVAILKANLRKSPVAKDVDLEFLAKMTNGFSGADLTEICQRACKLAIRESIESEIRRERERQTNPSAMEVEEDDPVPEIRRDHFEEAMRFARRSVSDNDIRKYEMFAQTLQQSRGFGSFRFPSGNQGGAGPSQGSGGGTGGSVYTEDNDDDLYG
Procedure: The ATPase assay is performed according the following protocol: Purified enzyme (20 nM p97), substrate (20 μM ATP) and a dose titration of compounds are mixed in buffer (50 mM TRIS pH 7.5, 20 mM MgCl2, 0.02% TX-100, 1 mM DTT, 0.2% (v/v) glycerol) and incubated at 37° C. for 15 minutes. The reaction is terminated and the level of product generated is measured using the ADP Glo Assay Kit (Promega, Madison Wis.). Plotting product generated versus compound concentration and using a four-parameter fit model generates an IC50 value for each compounds.
The p97 assay is an initial screening assay used to determine inhibitory activity of the triazine compounds of the invention against the p97 complex. As discussed above, inhibition of activity of the p97 proteosome complex can enable apoptosis and cause elimination of neoplastic cells (cancer cells). The method follows that of Christianson in Nat. Cell Biol., (2011) 14:93.
Assay Buffer is a mixture of 50 mM TRIS pH 7.5, 20 mM MgCl2, 0.02% TX-100, 1 mM DTT and 0.2% (v/v) Glycerol. The well plate is Platetype: Corning 3674, 384w plate. The identification kit is an ADP glo kit (Promega): stop buffer, detection reagent.
Serial dilute compound in DMSO in a 1:3.33-fold 10 point serial dilution.
in each well of 384w plate add the following reagents:
0.5 μL compound serial diluted in DMSO (Final Conc. 10%)
2 μL ATP (Final Conc.=20 uM, diluted in assay buffer)
2.5 μL p97 (Final Conc.=20 nM, diluted in assay buffer)
Incubate at 37 deg C. for 15 min.
Add 5 μL of stop buffer, incubate at RT for 40 min.
Add 10 μL of detection reagent, incubate at RT for 30 min.
Read luminescence on Envision plate reader.
Upon obtaining the data from the luminescence reading, the data may be analyzed as follows:
Normalize luminescence data using no enzyme (full inhibition) and no compound (no inhibition) controls. Plot normalized luminescence data against log-transformed concentration values and fit to a sigmoidal curve to determine IC50 values (done in Collaborative Drug Discovery software).

K48-Ub = K48-Ub immunofluorescence assay in A549 cells; type: cell-based; settings: Homo sapiens, 6 hr incubation
Procedure: Image-analysis is used to generate quantitative data from these assays that can be fit to a four-parameter sigmoid curve to derive IC50 values. Substrates of the ubiquitin-proteasome system, such as p53, are monitored after tumor cell lines are incubated with compounds for several hours. Accumulation of these proteins indicates an inhibition of proteasome-mediated degradation. Accumulation of lysine-48 chain linkage of poly-ubiquitin is also monitored by immunofluorescence as an indicator of ubiquitin-proteasome system inhibition. Both LC3 and SQSTM1 are mediators of autophagy. The localization and amounts of these proteins are monitored by immunofluorescence and report on the activity and inhibition of autophagy in response to p97 inhibition.
as §1, §2, §3
Fix/Stain Black Plates: • Incubate cells in black plates with compound at 37 deg C. for 6 hrs. • add 15 μL of 16% Paraformaldehyde (PFA) directly into media of each well, • incubate at room temp for 5 min, flick plate and wash in 50 μL of PBS • block in 50 μL of Blocking Buffer for 30 minutes (can go up to several hours) • Blocking buffer: 1×PBS, 1% BSA, 0.3% Triton-X100, Hoechst (1:10,000) • incubate in 25 μL of primary antibody in blocking buffer at 4 deg C. over night
Secondary Antibodies: • AlexaFluor488 Goat anti-Rabbit 1:2,000 (Life Tech A11008) • AlexaFluor555 Goat anti-Mouse 1:2,000 (Life Tech A21422) […]
Data Analysis: • Nuclear counts and cellular intensities of each markers are measured using Hoechst as a nuclear marker with an automated image analysis protocol using Matlab software (Math Works)

Row | Compound | IC50 (A549 cells) [µM] | IC50 (p97) [µM] | IC50 (K48-Ub) [µM] | Peff A B, Range (Caco-2 cells; pH 7.4 Caco-2, A to B) | Peff B A, Range (Caco-2 cells; pH 7.4 Caco-2, B to A)
1 | Cc1nc(NCc2ccccc2)nc(-n2c(C)cc3c(C(N)=O)cccc32)n1 [1-(4-(benzylamino)-6-methyl-1,3,5-triazin-2-yl)-2-methyl-1H-indole-4-carboxamide] | < 10 | < 0.1 | < 3 |  | 
2 | Cc1nnc(-n2c(C)cc3c(C(N)=O)cccc32)nc1NCc1cccc(F)c1 [1-(5-((3-fluorobenzyl)amino)-6-methyl-1,2,4-triazin-3-yl)-2-methyl-1H-indole-4-carboxamide] | < 10 | < 1 | < 3 |  | 
3 | COc1nc2c(C#N)cccc2n1-c1nnc(C)c(NCc2ccccc2)n1 [1-(5-(benzylamino)-6-methyl-1,2,4-triazin-3-yl)-2-methoxy-1H-benzo[d]imidazole-4-carbonitrile] |  | < 10 |  |  | 
4 | CC(C)NCC(O)COc1cccc2ccccc12 (stereo not shown) [Propranolol] |  |  |  | 18.50-36.80 ×E−6 cm/sec | 16.30-31.40 ×E−6 cm/sec

Results, then the molecule that gave them:

Row | IC50 (A549 cells) [µM] | IC50 (p97) [µM] | IC50 (K48-Ub) [µM] | Peff A B, Range (Caco-2 cells; pH 7.4 Caco-2, A to B) | Peff B A, Range (Caco-2 cells; pH 7.4 Caco-2, B to A) | Compound
5 | < 3 | < 0.03 | < 3 |  |  | Cc1nnc(-n2c(C)cc3c(C(N)=O)cccc32)nc1NCc1ccccc1 [1-(5-(benzylamino)-6-methyl-1,2,4-triazin-3-yl)-2-methyl-1H-indole-4-carboxamide]
6 | < 1 | < 0.03 | < 1 |  |  | CCc1nnc(-n2c(C)cc3c(C(N)=O)cccc32)nc1NCc1ccccc1 [1-(5-(benzylamino)-6-ethyl-1,2,4-triazin-3-yl)-2-methyl-1H-indole-4-carboxamide]
7 |  | < 10 |  |  |  | Cc1nnc(-n2c(CN)cc3c(C(N)=O)cccc32)nc1NCc1ccccc1 [2-(aminomethyl)-1-(5-(benzylamino)-6-methyl-1,2,4-triazin-3-yl)-1H-indole-4-carboxamide]
